Results published in paper PMC8991199, “Promiscuity mapping of the S100 protein family using a high-throughput holdup assay” (Scientific Reports, 2022).
Entries after “also recorded” stand apart in the source; their conditions may differ. Blank lines part the entries; values can stand above or below the compound they belong to.

Experiments:
Format in all cases: binding
S100A10 = S100A10 (Homo sapiens, UniProt P60903); assay: direct fluorescence polarization (FP), S100A10; settings: S100A10, 50 nM labeled foldamer, 20 mM HEPES pH 7.5, 150 mM NaCl, 1 mM CaCl2, 0.5 mM TCEP, 0.01% Tween20, quadratic fit, mean ± SEM, three technical repeats, threshold 1 mM
Sequence of S100A10 (P60903 whole entry): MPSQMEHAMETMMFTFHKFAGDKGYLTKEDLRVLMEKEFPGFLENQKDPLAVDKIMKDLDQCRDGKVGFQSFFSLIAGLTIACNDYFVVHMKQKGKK
From the text: HTP (and also low-throughput) measurements generally need to be validated by an orthogonal approach to eliminate experimental artifacts. […] In this assay, the association of the fluorescently labeled foldamer and the S100 protein of interest is monitored, through the change in polarization of the emitted light by the fluorophore upon the binding event. In direct FP, the presence of the fluorophore might change the binding affinity of some foldamers. […] Nevertheless, we assumed that the fluorophore would affect all foldamers that target the same binding site to the same degree, because the foldamer scaffold is rigid.
(§1) Briefly, S100 proteins were cloned into a modified pET15b vector with a TEV protease cleavable N-terminal His6-tag and expressed in Escherichia coli BL21 (DE3) cells, followed by Ni^2+-affinity chromatography. For HU assay, S100 proteins were further purified by either hydrophobic interaction chromatography or ion exchange chromatography without the cleavage of the N-terminal His6-tag applying standard conditions. For direct FP measurements, the N-terminal His6-tag was cleaved, and the S100 proteins were purified by hydrophobic interaction chromatography, ion exchange chromatography or size exclusion chromatography. The quality of the recombinant proteins was checked by SDS-PAGE analysis in all cases. The concentration of the recombinant S100 proteins was determined by UV spectrophotometry using the absorbance of Tyr and Trp residues.
(§2) In direct fluorescence polarization assays, S100 proteins were diluted in a buffer containing 50 nM labeled foldamer, 20 mM HEPES pH 7.5, 150 mM NaCl, 1 mM CaCl2, 0.5 mM TCEP and 0.01% Tween20. The dilution series (50 µl) were divided into three technical repeats and transferred (15 µl) to a 384-well microplate. In competitive fluorescence polarization assays, the buffer applied in direct measurements was supplemented with the S100 protein of interest to reach a saturation of 60–80%. This mixture was titrated with the competitor (i.e. the unlabeled peptide). Fluorescence polarization was measured in 8 different S100 concentrations (one of which contained no S100 protein) on a Synergy H4 plate reader using 485 ± 20 nm and 528 ± 20 nm band-pass filters for excitation and emission, respectively. The Kd values were obtained by fitting the data from the FP measurements with the python-based ProFit software using quadratic and competitive binding equation for direct and competitive FP, respectively. The detection threshold was based on two parameters. First, we rejected all fitted dissociation constants above 1 mM.

S100A5 = biological target: T1, S100A5 (Homo sapiens, UniProt P33763); assay: direct fluorescence polarization (FP), S100A5; settings: for Kd: direct FP, S100A5, 50 nM labeled foldamer, 20 mM HEPES pH 7.5, 150 mM NaCl, 1 mM CaCl2, 0.5 mM TCEP, 0.01% Tween20, quadratic fit, mean ± SEM, three technical repeats, threshold 1 mM; for binding to S100A5 in the absence of Ca2+: Fig. 3C middle panels, direct FP in the presence of EDTA
T1 sequence (P33763 1-92): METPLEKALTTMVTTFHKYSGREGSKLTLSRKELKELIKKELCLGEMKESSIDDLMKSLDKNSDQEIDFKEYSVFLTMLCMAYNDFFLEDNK
Method: (§3) HTP (and also low-throughput) measurements generally need to be validated by an orthogonal approach to eliminate experimental artifacts. […] This way, we chose WL, IF, WW, YF, IL, VL, TW, RF, RR, TI, TM, and after resynthesizing with a fluorescent label at the C-terminus (Figs. S15–S26, Table S1), the S100ome was tested against the labeled foldamers by direct fluorescence polarization (FP) (Fig. 3A). In this assay, the association of the fluorescently labeled foldamer and the S100 protein of interest is monitored, through the change in polarization of the emitted light by the fluorophore upon the binding event. In direct FP, the presence of the fluorophore might change the binding affinity of some foldamers. […] Nevertheless, we assumed that the fluorophore would affect all foldamers that target the same binding site to the same degree, because the foldamer scaffold is rigid. Defining the threshold of detection at the dissociation constant of 1 mM, we identified 87 interactions between the selected foldamer fragments and the S100ome out of 220 possible interactions (Table 1, Fig. S4-14).
To ensure that foldamer fragments bind to the hydrophobic binding groove of S100 proteins, which opens upon binding of calcium ions, we performed FP experiments on a selected S100 protein, S100A5, in the presence of EDTA and TRTK12, an S100-binding peptide of 12 amino acids. […] Based on the similarity and redundancy among the S100 family, it can be assumed that all S100 proteins bind the members of the H14 foldamer library through their hydrophobic binding pocket in a Ca^2+-dependent manner.
as §1, §2

S100B = biological target: T2, S100B (Homo sapiens, UniProt P04271); assay: direct fluorescence polarization (FP), S100B; settings: 50 nM labeled foldamer, 20 mM HEPES pH 7.5, 150 mM NaCl, 1 mM CaCl2, 0.5 mM TCEP, 0.01% Tween20, quadratic fit, mean ± SEM, three technical repeats, threshold 1 mM
T2 sequence (P04271 1-92): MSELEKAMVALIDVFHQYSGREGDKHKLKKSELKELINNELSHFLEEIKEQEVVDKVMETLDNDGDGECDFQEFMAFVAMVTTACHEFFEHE
Method: as §3, §1, §2

S100A16 = biological target: T3, S100A16 (Homo sapiens, UniProt Q96FQ6); assay: direct fluorescence polarization (FP), S100A16; settings: S100A16, 50 nM labeled foldamer, 20 mM HEPES pH 7.5, 150 mM NaCl, 1 mM CaCl2, 0.5 mM TCEP, 0.01% Tween20, quadratic fit, mean ± SEM, three technical repeats, threshold 1 mM
T3 sequence (Q96FQ6 1-103): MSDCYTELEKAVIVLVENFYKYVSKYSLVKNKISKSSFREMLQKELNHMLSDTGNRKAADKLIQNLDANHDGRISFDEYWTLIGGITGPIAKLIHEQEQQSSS
Method: as §3, §1, §2

S100A12 = biological target: T4, S100A12 (Homo sapiens, UniProt P80511); assay: direct fluorescence polarization (FP), S100A12; settings: S100A12, 50 nM labeled foldamer, 20 mM HEPES pH 7.5, 150 mM NaCl, 1 mM CaCl2, 0.5 mM TCEP, 0.01% Tween20, quadratic fit, mean ± SEM, three technical repeats, threshold 1 mM
T4 sequence (P80511 1-92): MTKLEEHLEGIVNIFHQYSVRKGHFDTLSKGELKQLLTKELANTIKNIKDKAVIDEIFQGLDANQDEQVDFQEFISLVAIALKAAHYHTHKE
Method: as §3, §1, §2

S100G = biological target: T5, S100G (Homo sapiens, UniProt P29377); assay: direct fluorescence polarization (FP), S100G; settings: 50 nM labeled foldamer, 20 mM HEPES pH 7.5, 150 mM NaCl, 1 mM CaCl2, 0.5 mM TCEP, 0.01% Tween20, quadratic fit, mean ± SEM, three technical repeats, threshold 1 mM
T5 sequence (P29377 2-79): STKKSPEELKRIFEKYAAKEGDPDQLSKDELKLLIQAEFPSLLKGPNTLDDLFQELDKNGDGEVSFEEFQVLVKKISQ
Method: as §3, §1, §2

- Kd (S100A10): 110 ± 5.5 µM
- Kd (S100A5): 110 ± 5.4 µM
- Kd (S100B): 50 ± 6.4 µM
- Kd (S100A16): > 1000 µM
- Kd (S100A12): > 1000 µM
- Kd (S100G): > 1000 µM
Structure (SMILES): CC(C)C[C@@H](CC(=O)N[C@H]1CCCC[C@@H]1C(=O)NCC(=O)N[C@@H](CCCCNC(=O)c1ccc2c(c1)C1(OC2=O)c2ccc(O)cc2Oc2cc(O)ccc21)C(N)=O)NC(=O)[C@H]1CCCC[C@@H]1NC(=O)[C@H]1CCCC[C@@H]1NC(=O)C[C@@H](NC(=O)[C@H]1CCCC[C@@H]1N)C(C)C [fVL]

- Kd (S100A5): 62 ± 1.4 µM
- Kd (S100B): 280 ± 17 µM
- Kd (S100A16): > 1000 µM
- Kd (S100A12): > 1000 µM
- Kd (S100G): > 1000 µM
Structure (SMILES): C[C@@H](O)[C@@H](CC(=O)N[C@H]1CCCC[C@@H]1C(=O)N[C@H]1CCCC[C@@H]1C(=O)N[C@H](CC(=O)N[C@H]1CCCC[C@@H]1C(=O)NCC(=O)N[C@@H](CCCCNC(=O)c1ccc2c(c1)C1(OC2=O)c2ccc(O)cc2Oc2cc(O)ccc21)C(N)=O)Cc1c[nH]c2ccccc12)NC(=O)[C@H]1CCCC[C@@H]1N [fTW]

Second part, the compound before the results:

Structure (SMILES): CC[C@H](C)[C@@H](CC(=O)N[C@H]1CCCC[C@@H]1C(=O)N[C@H]1CCCC[C@@H]1C(=O)N[C@H](CC(=O)N[C@H]1CCCC[C@@H]1C(=O)NCC(=O)N[C@@H](CCCCNC(=O)c1ccc2c(c1)C1(OC2=O)c2ccc(O)cc2Oc2cc(O)ccc21)C(N)=O)Cc1ccccc1)NC(=O)[C@H]1CCCC[C@@H]1N [fIF]
- Kd (S100A10): 97 ± 2.5 µM
- binding to S100A5 in the absence of Ca2+ (S100A5): loss of binding event; also recorded: unable to interact
- Kd (S100A5): 27 ± 0.53 µM
- Kd (S100B): 140 ± 7.9 µM
- Kd (S100A16): > 1000 µM
- Kd (S100A12): 590 ± 39 µM
- Kd (S100G): > 1000 µM

Structure (SMILES): CC(C)C[C@@H](CC(=O)N[C@H]1CCCC[C@@H]1C(=O)NCC(=O)N[C@@H](CCCCNC(=O)c1ccc2c(c1)C1(OC2=O)c2ccc(O)cc2Oc2cc(O)ccc21)C(N)=O)NC(=O)[C@H]1CCCC[C@@H]1NC(=O)[C@H]1CCCC[C@@H]1NC(=O)C[C@H](Cc1c[nH]c2ccccc12)NC(=O)[C@H]1CCCC[C@@H]1N [fWL]
- Kd (S100A10): 23 ± 0.7 µM
- binding to S100A5 in the absence of Ca2+ (S100A5): loss of binding event; also recorded: unable to interact
- Kd (S100A5): 14 ± 0.55 µM
- Kd (S100B): 11 ± 0.81 µM
- Kd (S100A16): 304 ± 131 µM
- Kd (S100A12): 254 ± 113 µM
- Kd (S100G): > 1000 µM

Structure (SMILES): CC[C@H](C)[C@@H](CC(=O)N[C@H]1CCCC[C@@H]1C(=O)N[C@H]1CCCC[C@@H]1C(=O)N[C@H](CC(=O)N[C@H]1CCCC[C@@H]1C(=O)NCC(=O)N[C@@H](CCCCNC(=O)c1ccc2c(c1)C1(OC2=O)c2ccc(O)cc2Oc2cc(O)ccc21)C(N)=O)CC(C)C)NC(=O)[C@H]1CCCC[C@@H]1N [fIL]
- Kd (S100A10): 72 ± 1.6 µM
- Kd (S100A5): 75 ± 3.6 µM
- Kd (S100B): 63 ± 4.4 µM
- Kd (S100A16): > 1000 µM
- Kd (S100A12): > 1000 µM
- Kd (S100G): > 1000 µM
